Consider 26 compounds from US20070049593A1 (priority 2004, published 2007).

pIC50: −log10 of the molar value. Where a name gives a salt, the structure may show the parent alone. Read-outs that look alike come from different tables or passages of the source.

For the experiment, the target named is T1, HCV polymerase (Hepatitis C virus genotype 1b, UniProt P26663).
T1 construct: a region encoding NS5B (J Virol 1991 March, 65(3), 1105-13, 544 amino acids after deletion of 47 amino acids on the C-terminal); 6xHis (C); made in house; host or cells: Escherichia coli
Briefly: biochemical. Set-up: species or system HCV BK strain. A digest of the protocol:
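Recombinant HCV BK-strain NS5B (C-terminal 47 aa deleted, His6-tagged, E. coli), 0.5 μg/ml, run with 5 μg/ml in vitro-transcribed RNA template (polyU/3′X), ATP/GTP/CTP 50 μM, UTP 2 μM plus [3H]UTP, pH 7.5, 25° C, 90 min. TCA-precipitated RNA counted by scintillation; IC50 from activity with vs without compound.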

T1 sequence (P26663 2420-2963): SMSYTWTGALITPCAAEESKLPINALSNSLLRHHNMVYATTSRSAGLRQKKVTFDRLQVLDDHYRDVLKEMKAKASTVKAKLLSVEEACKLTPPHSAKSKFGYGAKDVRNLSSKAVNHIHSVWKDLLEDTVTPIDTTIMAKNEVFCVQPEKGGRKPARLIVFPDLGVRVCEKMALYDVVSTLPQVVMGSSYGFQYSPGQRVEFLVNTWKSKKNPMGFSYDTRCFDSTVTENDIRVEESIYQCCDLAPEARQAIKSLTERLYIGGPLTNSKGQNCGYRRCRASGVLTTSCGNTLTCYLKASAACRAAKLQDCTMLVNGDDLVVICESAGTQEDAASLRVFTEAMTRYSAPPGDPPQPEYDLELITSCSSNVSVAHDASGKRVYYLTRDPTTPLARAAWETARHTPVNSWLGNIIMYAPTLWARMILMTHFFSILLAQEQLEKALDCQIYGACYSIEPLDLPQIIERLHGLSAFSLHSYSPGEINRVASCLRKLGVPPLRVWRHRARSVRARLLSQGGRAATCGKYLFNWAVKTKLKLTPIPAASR

On to `CC(C)(C)OC(=O)N1CCC(NC(=O)c2ccc3c(C4CCCCC4)c4n(c3c2)CCOc2ccccc2-4)(C(=O)Nc2ccc(/C=C/C(=O)O)cc2)CC1` [Example 2-155, tert-butyl 4-[4-((E)-2-carboxyvinyl)phenylcarbamoyl]-4-[(12-cyclohexyl-6,7-dihydro-5-oxa-7a-azadibenzo[a,e]azulene-9-carbonyl)amino]piperidine-1-carboxylate], for which the pIC50 (as a rule, the IC50 on a negative log10 scale, so that one unit is a factor of ten) is above 7.00.

In turn, `COC[C@@H]1CCCN(CCN2CCn3c(c(C4CCCCC4)c4ccc(C(=O)O)cc43)-c3cc(F)c(F)cc32)C1` [Example 1-530, 13-cyclohexyl-2,3-difluoro-5-[2-7((R)-3-methoxymethylpiperidin-1-yl)ethyl]-6,7-dihydro-5H-benzo[5,6][1,4]diazepino[7,1-a]indole-10-carboxylic acid dihydrochloride] showed a pIC50 above 7.00.

In turn, `CC(C)c1ccc2c(c1)N(CCN1CCCCCC1)CCn1c-2c(C2CCCCC2)c2ccc(C(=O)O)cc21` [Example 1-337, 5-[2-(azepan-1-yl)ethyl]-13-cyclohexyl-3-isopropyl-6,7-dihydro-5H-benzo[5,6][1,4]diazepino[7,1-a]indole-10-carboxylic acid dihydrochloride] had a pIC50 above 7.00.

`CONC(=O)[C@H](Cc1ccc(O)cc1)NC(=O)c1ccc2c(C3CCCCC3)c3n(c2c1)CCOc1cc(OC)ccc1-3` [Example 2-426, N—[(S)-2-(4-hydroxyphenyl)-1-(methoxycarbamoyl)ethyl]-12-cyclohexyl-3-methoxy-6,7-dihydro-5-oxa-7a-azadibenzo[a,e]azulene-9-carboxamide] showed a pIC50 above 7.00.

Consider `COC(=O)C(CN1CCC(O)CC1)NC(=O)c1ccc2c(C3CCCCC3)c3n(c2c1)CCOc1cc(OC)ccc1-3` (centres unmarked) [Example 2-379, methyl 2-[(12-cyclohexyl-3-methoxy-6,7-dihydro-5-oxa-7a-azadibenzo[a,e]azulene-9-carbonyl)amino]-3-(4-hydroxypiperidin-1-yl)propionate monohydrochloride], for which the pIC50 was 6.00 to 7.00.

As for `COc1ccc2c(c1)OCCn1c-2c(C2CCCCC2)c2ccc(C(=O)NC(C)(C)c3ncc(-c4ccc(C(=O)O)cc4)[nH]3)cc21` [Example 2-399, 4-(2-{1-[(12-cyclohexyl-3-methoxy-6,7-dihydro-5-oxa-7a-azadibenzo[a,e]azulene-9-carbonyl)amino]-1-methylethyl}-3H-imidazol-4-yl)benzoic acid], the pIC50 is above 7.00.

`Cc1ccc2c(c1)N(CCCN1CCCCCC1)CCn1c-2c(C2CCCCC2)c2ccc(C(=O)O)cc21` [Example 1-300, 5-[3-(azepan-1-yl)propyl]-13-cyclohexyl-3-methyl-6,7-dihydro-5H-benzo[5,6][1,4]diazepino[7,1-a]indole-10-carboxylic acid dihydrochloride] showed a pIC50 above 7.00.

`O=C(O)c1ccc2c(C3CCCCC3)c3n(c2c1)CCc1ccccc1-3` [Example 5-4, 12-cyclohexyl-5,6-dihydroindolo[2,1-a]isoquinoline-9-carboxylic acid] had a pIC50 of 6.00 to 7.00.

The compound `COc1ccc2c(c1)OCCn1c-2c(C2CCCCC2)c2ccc(C(=O)NC(C)(C)c3ccc(CC(NC(C)=O)C(=O)O)cc3)cc21` (centres unmarked) [Example 2-443, 2-acetylamino-3-(4-{1-[(12-cyclohexyl-3-methoxy-6,7-dihydro-5-oxa-7a-azadibenzo[a,e]azulene-9-carbonyl)amino]-1-methylethyl}phenyl)propionic acid] showed a pIC50 above 7.00.

`COc1ccc2c(c1)OCCn1c-2c(C2CCCCC2)c2ccc(C(=O)N[C@@H](Cc3ccc(O)cc3)C(=O)N(C)OC)cc21` [Example 2-427, N—[(S)-2-(4-hydroxyphenyl)-1-(N-methoxy-N-methylcarbamoyl)ethyl]-12-cyclohexyl-3-methoxy-6,7-dihydro-5-oxa-7a-azadibenzo[a,e]azulene-9-carboxamide] showed a pIC50 above 7.00.

`O=C(O)c1ccc2c(C3CCCCC3)c3n(c2c1)CCN(CC(=O)N1CCCCCC1)c1ccccc1-3` [Example 1-78, 5-[2-(azepan-1-yl)-2-oxoethyl]-13-cyclohexyl-6,7-dihydro-5H-benzo[5,6][1,4]diazepino[7,1-a]indole-10-carboxylic acid monohydrochloride] had a pIC50 above 7.00.

Turning to `O=C(O)c1ccc2c(C3CCCCC3)c3n(c2c1)CCN(CCN1CCOCC1)c1ccccc1-3` [Example 1-27, 13-cyclohexyl-5-[2-(morpholin-4-yl)ethyl]-6,7-dihydro-5H-benzo[5,6][1,4]diazepino[7,1-a]indole-10-carboxylic acid dihydrochloride], the pIC50 is above 7.00.

The compound `CCN1CCN(CCN2CCn3c(c(C4CCCCC4)c4ccc(C(=O)O)cc43)-c3ccc(F)cc32)CC1` [Example 1-160, 13-cyclohexyl-5-[2-(4-ethylpiperazin-1-yl)ethyl]-3-fluoro-6,7-dihydro-5H-benzo[5,6][1,4]diazepino[7,1-a]indole-10-carboxylic acid trihydrochloride] had a pIC50 above 7.00.

As for `CC(C)c1ccc2c(c1)N(CCN1CCCC1)CCn1c-2c(C2CCCCC2)c2ccc(C(=O)O)cc21` [Example 1-359, 13-cyclohexyl-3-isopropyl-5-[2-(pyrrolidin-1-yl)ethyl]-6,7-dihydro-5H-benzo[5,6][1,4]diazepino[7,1-a]indole-10-carboxylic acid monohydrochloride], the pIC50 was above 7.00.

`CC(=O)N1CCC(N2CCn3c(c(C4CCCCC4)c4ccc(C(=O)O)cc43)-c3ccc(C)cc32)CC1` [Example 1-563, 5-(1-acetylpiperidin-4-yl)-13-cyclohexyl-3-methyl-6,7-dihydro-5H-benzo[5,6][1,4]diazepino[7,1-a]indole-10-carboxylic acid]: the pIC50 was above 7.00.

Compound `CCN1CCN(C(=O)CN2C(=O)Cn3c(c(C4CCCCC4)c4ccc(C(=O)O)cc43)-c3ccccc32)CC1` [Example 1-204, 13-cyclohexyl-5-[2-(4-ethylpiperazin-1-yl)-2-oxoethyl]-6-oxo-6,7-dihydro-5H-benzo[5,6][1,4]diazepino[7,1-a]indole-10-carboxylic acid monohydrochloride] showed a pIC50 above 7.00.

Consider `CCOCC1CCCN(CCN2CCn3c(c(C4CCCCC4)c4ccc(C(=O)O)cc43)-c3ccc(C)cc32)C1` (centres unmarked) [Example 1-392, 13-cyclohexyl-5-[2-(3-ethoxymethylpiperidin-1-yl)ethyl]-3-methyl-6,7-dihydro-5H-benzo[5,6][1,4]diazepino[7,1-a]indole-10-carboxylic acid dihydrochloride], for which the pIC50 was above 7.00.

Consider `CC(C)(NC(=O)c1ccc2c(C3CCCCC3)c3n(c2c1)CCOc1ccccc1-3)c1nc2ccc(C#N)cc2[nH]1` [Example 2-269, N-[1-(6-cyano-1H-benzimidazol-2-yl)-1-methylethyl]-12-cyclohexyl-6,7-dihydro-5-oxa-7a-azadibenzo[a,e]azulene-9-carboxamide], for which the pIC50 is above 7.00.

For the compound “N-[2-cyclohexyl-9-(1H-tetrazol-5-yl)-6,7-dihydro-5-oxa-7a-azadibenzo[a,e]azulen-4-yl]-N-[2-(piperidin-1-yl)ethyl]propylamine [Example 2-326]”, the pIC50 (25° C., 90 min, [5,6-3H]UTP incorporation into RNA, read-out: HCV polymerase inhibitory activity IC50) is above 7.00.

`CC(C)(NC(=O)c1ccc2c(C3CCCCC3)c3n(c2c1)CCOc1ccccc1-3)c1nc2ccccc2n1CCO` [Example 2-351, N-{1-[1-(2-hydroxyethyl)-1H-benzimidazol-2-yl]-1-methylethyl}-12-cyclohexyl-6,7-dihydro-5-oxa-7a-azadibenzo[a,e]azulene-9-carboxamide] showed a pIC50 above 7.00.

Consider `COc1ccc2c(c1)OCCn1c-2c(C2CCCCC2)c2ccc(C(=O)N[C@@H](CCc3ccc(O)cc3)C(=O)O)cc21` [Example 2-376, (S)-2-[(12-cyclohexyl-3-methoxy-6,7-dihydro-5-oxa-7a-azadibenzo[a,e]azulene-9-carbonyl)amino]-4-(4-hydroxyphenyl)butyric acid], for which the pIC50 was above 7.00.

`CS(=O)(=O)N1CCN(C(=O)CN2CCn3c(c(C4CCCCC4)c4ccc(C(=O)O)cc43)-c3ccccc32)CC1` [Example 1-70, 13-cyclohexyl-5-[2-(4-methanesulfonylpiperazin-1-yl)-2-oxoethyl]-6,7-dihydro-5H-benzo[5,6][1,4]diazepino[7,1-a]indole-10-carboxylic acid monohydrochloride] had a pIC50 above 7.00.

For the compound `CCN1CCC(CN2CCn3c(c(C4CCCCC4)c4ccc(C(=O)O)cc43)-c3ccccc32)CC1` [Example 1-130, 13-cyclohexyl-5-(1-ethylpiperidin-4-ylmethyl)-6,7-dihydro-5H-benzo[5,6][1,4]diazepino[7,1-a]indole-10-carboxylic acid], the pIC50 was above 7.00.

Consider `COc1ccc2c(c1)OCCn1c-2c(C2CCCCC2)c2ccc(C(=O)NC3(c4nc5ccc(C(=O)O)cc5[nH]4)CCN(C)CC3)cc21` [Example 2-449, 2-{4-[(12-cyclohexyl-3-methoxy-6,7-dihydro-5-oxa-7a-azadibenzo[a,e]azulene-9-carbonyl)amino]-1-methylpiperidin-4-yl}-3H-benzimidazole-5-carboxylic acid], for which the pIC50 was above 7.00.

`CCC1CN(CCN2CCn3c(c(C4CCCCC4)c4ccc(C(=O)O)cc43)-c3ccc(Cl)cc32)CCO1` (centres unmarked) [Example 1-290, 3-chloro-13-cyclohexyl-5-[2-(2-ethylmorpholin-4-yl)ethyl]-6,7-dihydro-5H-benzo[5,6][1,4]diazepino[7,1-a]indole-10-carboxylic acid dihydrochloride] had a pIC50 above 7.00.

The compound `COc1ccc2c(c1)OCCn1c-2c(C2CCCCC2)c2ccc(C(=O)N[C@@H](Cc3ccc(OCc4ccccc4)cc3)c3noc(=O)[nH]3)cc21` [Example 2-428, N—[(S)-2-(4-benzyloxyphenyl)-1-(5-oxo-4,5-dihydro-1,2,4-oxadiazol-3-yl)ethyl]-12-cyclohexyl-3-methoxy-6,7-dihydro-5-oxa-7a-azadibenzo[a,e]azulene-9-carboxamide] showed a pIC50 above 7.00.
